Where two headings read alike, the source gives them in different places.

Data set [1] in a line: T1 relaxivity of Gd(III) complexes (Bruker mq60 NMR analyzer). It is filed as physicochemical. The following applies: aqueous Gd(III) complexes; for T1 relaxivity: pH 7, 59.97 MHz, 37° C. The procedure: Gd(NE3TA) and Gd(NE3TA-Bn) were synthesized by reacting GdCl3 with NE3TA and NE3TA-Bn, respectively. NE3TA or NE3TA-Bn were mixed with GdCl3 in a molar ratio of 1 to 0.9, and the resulting mixture at pH 7 was heated to 90° C. and stirred until no free Gd(III) ions were detected using an ArsenazoIII (AAIII) assay. Relaxivity of the aqueous […] complexes (pH 7) was measured on a Bruker MQ60 NMR analyzer, and the concentration of the Gd(III) complexes was measured by ICP-MS. […] NE3TA was successfully conjugated with the most common bile acid, cholic acid (FIG. 41).
(§1) Relaxivity Measurements. Relaxivity measurements were acquired by taking the slope of a plot of 1/T1 (s^−1) versus concentration (mM). The longitudinal water proton relaxation times (T1) were determined using a Bruker mq60 NMR (Bruker Canada, Milton, ON, Canada) analyzer operating at 59.97 MHz and 37° C. The agent was added to Millipore water and serially diluted by 0.5 to give a series of 5 concentrations (500 μL total volume) for each relaxivity trial. The T1 was determined using an inversion recovery pulse sequence with 10 different pulse separations per sample, 4 repetitions per echo time, phase cycling, and a recycle delay that is ≥5 times the T1 of each given sample. All curves were fit using a monoexponential curve fitting formula.
Relaxivity of the aqueous Gd(III) complexes (˜pH 7) were measured on a Bruker MQ60 NMR analyzer, and the concentration of the Gd(III) complexes were measured by ICP-MS. […] As mentioned above, the on and off binding to Gd(III) of one of the pendant coordinates would have resulted enhanced relaxivity of Gd(C-NETA) compared to Gd(C-DOTA). Among the evaluated Gd(III) complexes, Gd(C-NE3TA) gives the highest T1 relaxivity at 60 MHz, probably due to increase in q. The relaxation rates for the Gd(III) chelates are dominated by the inner-sphere dipolar coupling between the coordinated water molecule and the paramagnetic Gd(III). The measured relaxivities arise from the exchange between the coordinated water molecule and the surrounding water molecules in solution. […] No indication of Gd(III) dissociation is evident from the relaxivity data, which is in agreement with the in vitro serum stability and in vivo biodistribution studies.
as §1, with “The T1 relaxivity was determined” for “The T1 was determined”

For data set [2] the following is noted: cited from earlier work.

For the molecule `O=C(O)CNC(Cc1ccc([N+](=O)[O-])cc1)CN1CCN(CC(=O)O)CCN(CC(=O)O)CC1.[Gd]` (stereo not drawn) [Gd(C-NE3TA)], the “T1 relaxivity of Gd(III) complexes of bifunctional ligands” value in data set [1] (~pH 7, 60 MHz) turned out to be 5.89 mM⁻¹ s⁻¹.

Regarding `O=C([O-])CN1CCN(CC(=O)[O-])CCN(CC(=O)O)CCN(CC(=O)[O-])CC1.[Gd+3]` [Gd(DOTA), reference compound], the T1 relaxivity in data set [1] is 2.97 mM⁻¹ s⁻¹.

The molecule `O=C(O)CNCCN1CCN(CC(=O)O)CCN(CC(=O)O)CC1.[Gd]` [Gd(NE3TA)] registered a T1 relaxivity in data set [1] of 3.94 mM⁻¹ s⁻¹.

Take `O=C(O)CN1CCN(CCN(CC(=O)O)CC(=O)O)CCN(CC(=O)O)CC1.[177Lu]` [^177Lu-NETA]: the “organ uptake and blood clearance (in words)” value in data set [2] (in vivo) was “very low organ uptake and rapid blood clearance”.

For the molecule `O=C([O-])CN1CCN(CCN(CC(=O)[O-])CC(=O)[O-])CCN(CC(=O)[O-])CC1.[Bi+3]` [^205/6Bi-NETA], the retention in liver in data set [2] (0 h) is on record as 5.93±0.78 % ID/g; in data set [2] (24 h), 7.31±1.521 % ID/g.
